Assay results: patent US20030153538A1, “Antitumor agent” (The Nisshin OilliO, Ltd., priority 2000, published 2003)
Entries after “also recorded” stand apart in the source; their conditions may differ. Read-outs that look alike come from different tables or passages of the source.

Columns and labels:
[1] = test system: B16 melanoma cells; test: Test for malignant melanoma metastasis-inhibitory effect (lung metastasis after i.v. injection of B16 melanoma cells); assay type: in vivo, Whister female rats; conditions: rats; for RMI (rate of metastasis-inhibition): every other day, lung lesions on 15th day; for tumor cell-metastasis-inhibitory effect compared with the control group (in words): metastasis of cancer to lung, summary of Table 2
Description: The tumor cell-metastasis-inhibitory effect can be evaluated according to, for instance, the malignant melanoma metastasis-inhibitory test. More specifically, a suspension of B16 melanoma cells prepared in advance is intravenously injected into Whister female rats, cotton seed oil in which each test substance is dissolved in a predetermined concentration is intraperitoneally administered through injection or orally administered using a sonde, every second day starting from 2nd day after the intravenous injection of the suspension. In this connection, only cotton seed oil is administered to the control group of animals. The lungs are extracted from these animals on the 15th day after the injection of the B16 melanoma cells, the lungs are examined to determine the number of cancer lesions thus metastasized to thus calculate the rate of metastasis-inhibition. The tumor cell-metastasis-inhibitory effect of each test sample is evaluated on the basis of the resulting rate of metastasis-inhibition.
Tests for evaluating the malignant melanoma metastasis-inhibitory effect of each test sample were conducted according to the following method. Whister female rats (6-week-old; average body weight: 160 g) were preliminarily bred with a powdery feed preparation having a composition of AIN-93 for one week, these animals were divided into 5 groups (8 animals per group) so as to equalize the average body weight and then a previously prepared suspension of B16 melanoma cells was intravenously injected into each rat. Subsequently, these animals were bred with a powdery feed preparation having a composition of AIN-93 and cotton seed oil in which each of maslinic acid, erythrodiol, ursolic acid, uvaol, betulinic acid, betulin, compounds of Synthetic Examples 1 and 2, or oleanolic acid had been dissolved in a predetermined concentration was intraperitoneally injected into each animal or orally administered thereto using a sonde, every other day starting from the 2nd day after the injection of the B 16 melanoma cells. In this connection, only cotton seed oil was administered to the control group. On the 15th day after the injection of the B 16 melanoma cells, the lung of each animal was taken out, the lungs were examined to determine the number of cancer lesions thus metastasized and to thus calculate the rate of metastasis-inhibition in accordance with the following equation 2. The tumor cell-metastasis-inhibitory effect of each test sample could be evaluated on the basis of the resulting rate of metastasis-inhibition.
Rate of Metastasis-Inhibition (%)=[(D−C)/D]×100
Wherein C: Average number of cancer lesions metastasized observed in each animal group; and D: average number of cancer lesions metastasized observed in the control group.
Maslinic acid, erythrodiol, ursolic acid, uvaol, betulinic acid, betulin and physiologically acceptable salts thereof or derivatives thereof as well as cotton seed oil as the control were inspected for the rate of metastasis-inhibition (RMI) using the dose and administration methods specified in the following Table 2. In addition, the same procedures used above were repeated except for using oleanolic acid as a comparative sample to thus evaluate the rate of metastasis-inhibition (RMI) thereof.

[2] = test system: B-16 melanoma cells; test: Tests for tumor cell-proliferation-inhibitory effect and tumor cell-extinction (cell growth rate from viable cell count); assay type: cell-based; conditions: for tumor cell-killing effect (in words): at not less than 2 times the concentration required for proliferation inhibition
Description: The tumor cell-proliferation-inhibitory effect and the tumor cell-killing or extinction effect can be determined according to the following method using B-16 melanoma cells.
More specifically, B-16 melanoma cells are inoculated in each well of a 6-well plate in a desired amount, followed by allowing the plate to stand at 37° C. and 5% carbon dioxide concentration to thus cultivate the cells, adding a sample solution to be tested (maslinic acid, erythrodiol, ursolic acid, uvaol, betulinic acid, betulin and physiologically acceptable salts thereof or derivatives thereof) to each well in an amount sufficient for achieving a desired concentration, on the next day or after 5 days from the initiation of the cultivation, determination of viable cell count on the 6th day after the initiation of the cultivation and calculation of the cell growth rate based on the viable cell count to thus evaluate the tumor cell-proliferation-inhibitory effect and the tumor cell-killing effect.
Tests for determining the tumor cell-proliferation-inhibitory effect and the tumor cell-killing effect were conducted according to the following method. To a 6-well plate, a culture medium was dispensed in an amount of 2 mL/well, B-16 melanoma cells were then inoculated in a desired quantity and thereafter the melanoma cells were cultivated by allowing the plate or the culture medium to stand at 37° C. and a carbon dioxide concentration of 5%. On the following day, a test sample solution prepared was added to and admixed with the content of each well to a desired concentration and the cultivation of the melanoma cells was continued. The culture medium was then exchanged on the 5th day from the initiation of the cultivation and the test sample solution was again added to each well. On the next day, the culture medium was removed to recover the cultivated melanoma cells, followed by washing the cells with PBS (phosphate buffered saline), determination of the viable cell count, and then calculation of the cell growth rate according to the following equation 1. The tumor cell-proliferation-inhibitory effect and the tumor cell-killing effect of each test sample were evaluated on the basis of the cell growth rate thus determined.
Cell Growth Rate (%)=(A/B)×100
As comparative examples, oleanolic acid, β-amyrin, α-amyrin and lupeol were added to the culture medium to thus determine and evaluate the cell growth rate by the same method used above.

[3] = 100 mg/body wt. (kg), Oral Adm.
[4] = Mus musculus, B16, 144 h, 5 ppm, viable cell count vs control on 6th day, read-out: Cell Growth Rate
[5] = Mus musculus, B16, 144 h, 15 ppm, viable cell count vs control on 6th day, read-out: Cell Growth Rate
[6] = Mus musculus, B16, 144 h, 25 ppm, viable cell count vs control on 6th day, read-out: Cell Growth Rate
[7] = Mus musculus, B16, 144 h, viable cell count vs control on 6th day
[8] = Mus musculus, B16, 144 h, 20 ppm, viable cell count vs control on 6th day, read-out: Cell Growth Rate

## CC1(C)CC[C@]2(CO)CC[C@]3(C)C(=CC[C@@H]4[C@@]5(C)CC[C@H](O)C(C)(C)[C@@H]5CC[C@]43C)[C@@H]2C1 [Erythrodiol]
[1]; [3]
  RMI (rate of metastasis-inhibition): 56.3%
[1]
  tumor cell-metastasis-inhibitory effect compared with the control group (in words): significantly (P<0.05) inhibit any metastasis of cancer to lung
[2]; [4]
  activity at 5 ppm: 73%
[2]; [5]
  activity at 15 ppm: 69%
[2]; [6]
  activity at 25 ppm: 53%
[2]; [7]
  activity at 50 ppm: 43%
[2]; summary of Table 1
  tumor cell-proliferation-inhibitory effect (in words): quite strong tumor cell-proliferation-inhibitory effects

## CC1(C)CC[C@]2(C(=O)O)CC[C@]3(C)C(=CC[C@@H]4[C@@]5(C)CC[C@H](O)C(C)(C)[C@@H]5CC[C@]43C)[C@@H]2C1 [Oleanolic acid, oleanolic acid, reference compound]
[1]; 300 mg/body wt. (kg), Oral Adm.
  RMI (rate of metastasis-inhibition): 9.2%
[1]
  tumor cell-metastasis-inhibitory effect compared with the control group (in words): does not possess any tumor cell-metastasis-inhibitory effect; also recorded: Any significant effect was not observed
[2]; [5]
  activity at 15 ppm: 100%
[2]; [8]
  activity at 20 ppm: 100%
[2]; [6]
  activity at 25 ppm: 100%
[2]; Mus musculus, B16, 144 h, 30 ppm, viable cell count vs control on 6th day
  activity at 30 ppm: 100%
[2]; Mus musculus, B16, 144 h, 40 ppm, viable cell count vs control on 6th day
  activity at 40 ppm: 100%
[2]; [7]
  activity at 50 ppm: 94%
[2]
  tumor cell-killing effect (in words): not observed
[2]; summary of Table 1
  tumor cell-proliferation-inhibitory effect (in words): cannot inhibit the proliferation of the B-16 melanoma cells at all
[2]; summary of Table 1, listed as oleanolic acid
  tumor cell-proliferation-inhibitory effect (in words): quite weak tumor cell-proliferation-inhibitory effect only at a higher concentration

## CC1(C)CC[C@]2(C(=O)O)CC[C@]3(C)C(=CC[C@@H]4[C@@]5(C)C[C@@H](O)[C@H](O)C(C)(C)[C@@H]5CC[C@]43C)[C@@H]2C1 [Purified maslinic acid 1, maslinic acid]
[1]; 50 mg/body wt. (kg), Oral Adm.
  RMI (rate of metastasis-inhibition): 61.4%
[2]; 5 ppm, viable cell count vs control on 6th day
  Cell Growth Rate: 67%
[2]; 10 ppm, viable cell count vs control on 6th day
  Cell Growth Rate: 43%
[2]; 15 ppm, viable cell count vs control on 6th day
  Cell Growth Rate: 6%
[2]; 20 ppm, viable cell count vs control on 6th day
  Cell Growth Rate: 0%
[2]; 25 ppm, viable cell count vs control on 6th day
  Cell Growth Rate: 0%

## CC1(C)CC[C@]2(C(=O)O)CC[C@]3(C)C(=CC[C@@H]4[C@@]5(C)C[C@@H](O)[C@H](O)C(C)(C)[C@@H]5CC[C@]43C)[C@@H]2C1 [Purified maslinic acid 2, maslinic acid]
[1]; 50 mg/body wt. (kg), I.P. Adm.
  RMI (rate of metastasis-inhibition): 67.3%
[1]; [3]
  RMI (rate of metastasis-inhibition): 78.6%
[2]; Mus musculus, B16, 144 h, read-out: Cell Growth Rate, 5 ppm, viable cell count vs control on 6th day
  activity at 5 ppm: 75%
[2]; Mus musculus, B16, 144 h, read-out: Cell Growth Rate, 10 ppm, viable cell count vs control on 6th day
  activity at 10 ppm: 47%
[2]; Mus musculus, B16, 144 h, read-out: Cell Growth Rate, 15 ppm, viable cell count vs control on 6th day
  activity at 15 ppm: 11%
[2]; Mus musculus, B16, 144 h, read-out: Cell Growth Rate, 20 ppm, viable cell count vs control on 6th day
  activity at 20 ppm: 0%
[2]; Mus musculus, B16, 144 h, read-out: Cell Growth Rate, 25 ppm, viable cell count vs control on 6th day
  activity at 25 ppm: 0%

## C[C@H]1[C@H](C)CC[C@]2(C(=O)O)CC[C@]3(C)C(=CC[C@@H]4[C@@]5(C)CC[C@H](O)C(C)(C)[C@@H]5CC[C@]43C)[C@H]12 [Ursolic acid]
[1]; [3]
  RMI (rate of metastasis-inhibition): 79.5%
[1]
  tumor cell-metastasis-inhibitory effect compared with the control group (in words): significantly (P<0.05) inhibit any metastasis of cancer to lung
[2]; [4]
  activity at 5 ppm: 64%
[2]; Mus musculus, B16, 144 h, 10 ppm, viable cell count vs control on 6th day, read-out: Cell Growth Rate
  activity at 10 ppm: 40%
[2]; [5]
  activity at 15 ppm: 3%
[2]; [8]
  activity at 20 ppm: 0%
[2]; [6]
  activity at 25 ppm: 0%
[2]; [7]
  activity at 50 ppm: 0%
[2]
  tumor cell-killing effect (in words): quite intensive tumor cell-killing effects
[2]; summary of Table 1
  tumor cell-proliferation-inhibitory effect (in words): quite strong tumor cell-proliferation-inhibitory effects

## C[C@H]1[C@H](C)CC[C@]2(CO)CC[C@]3(C)C(=CC[C@@H]4[C@@]5(C)CC[C@H](O)C(C)(C)[C@@H]5CC[C@]43C)[C@H]12 [Uvaol]
[1]; [3]
  RMI (rate of metastasis-inhibition): 43.7%
[1]
  tumor cell-metastasis-inhibitory effect compared with the control group (in words): significantly (P<0.05) inhibit any metastasis of cancer to lung
[2]; [4]
  activity at 5 ppm: 80%
[2]; [5]
  activity at 15 ppm: 69%
[2]; [6]
  activity at 25 ppm: 49%
[2]; [7]
  activity at 50 ppm: 30%
[2]; summary of Table 1
  tumor cell-proliferation-inhibitory effect (in words): quite strong tumor cell-proliferation-inhibitory effects

## CC1(C)CC[C@]2(C(=O)O)CC[C@]3(C)C(=CC[C@@H]4[C@@]5(C)C[C@@H](O)[C@H](O)C(C)(C)[C@@H]5CC[C@]43C)[C@@H]2C1 [maslinic acid]
[1]
  tumor cell-metastasis-inhibitory effect compared with the control group (in words): significantly (P<0.05) inhibit any metastasis of cancer to lung
[2]
  tumor cell-killing effect (in words): quite intensive tumor cell-killing effects
[2]; summary of Table 1
  tumor cell-proliferation-inhibitory effect (in words): quite strong tumor cell-proliferation-inhibitory effects
